We go through 1 molecule from paper PMC9841525, “Chemical Blockage of the Mitochondrial Rhomboid Protease PARL by Novel Ketoamide Inhibitors Reveals Its Role in PINK1/Parkin-Dependent Mitophagy” (Journal of Medicinal Chemistry, 2022).

*1 amine or outer side, *2 acyl side, *3 side chain or, on linkers, in order; H or OH if unused. Where a SMILES comes first, the peptide text is derived from it. [ ]: non-standard residue; d: D form. The star is where a group is joined. NH(4-phenylbutyl) = c1ccc(CCCCN*)cc1; X1 = C[C@H](N[*:1])C(=O)C(=O)[*:2]

Assay [1] concerns the target T1, PARL (Homo sapiens, UniProt Q9H300).
T1 sequence (Q9H300 53-379): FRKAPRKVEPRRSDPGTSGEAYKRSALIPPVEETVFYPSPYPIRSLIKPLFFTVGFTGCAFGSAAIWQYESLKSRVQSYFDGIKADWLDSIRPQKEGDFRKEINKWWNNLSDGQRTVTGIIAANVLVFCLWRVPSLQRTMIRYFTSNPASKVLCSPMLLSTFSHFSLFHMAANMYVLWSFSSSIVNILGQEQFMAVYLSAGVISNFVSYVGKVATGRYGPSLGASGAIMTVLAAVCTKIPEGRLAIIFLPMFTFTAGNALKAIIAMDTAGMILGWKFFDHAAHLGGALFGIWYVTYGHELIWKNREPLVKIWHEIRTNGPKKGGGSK
The assay can be described thus: PARL inhibition assay in cells: cleavage of overexpressed PGAM5-Myc by tetracycline-induced PARL-FLAG, immunoblot. More on the design: expressed in transfected cells; host or cells: Flp-In HEK293 T-REx PARL knockout cells. It is filed as cell-based. Here is the method:
PARL inhibition assays in cells were carried out in Flp-In HEK293 T-REx PARL knockout cells stably transfected with tetracycline inducible PARL-FLAG grown in DMEM (Gibco) supplemented with 10% (v/v) tetracycline-free fetal bovine serum (Clontech). For the inhibition assay, 0.7 × 10^6 cells were seeded per well of a 6-well plate, and the next day transfected with 5 μg of human PGAM5-Myc in pcDNA and 15 μg of branched polyethylenimine (Polysciences) per well. Four hours after transfection, the PARL expression was induced by adding tetracycline to 1 μg/mL. Eight hours after transfection, the inhibitors were added to each well in different concentrations in serum-free DMEM with 1% DMSO.
For immunoblot analysis of the effects of PARL inhibitors on PGAM5 cleavage, after overnight incubation with inhibitors, cells from each well were harvested in 1× SDS sample buffer containing 20 mM MgCl2 and Pierce universal nuclease (250 U/mL, Thermo Scientific) and heated to 65 °C for 10 min. Loading volumes for SDS-PAGE were adjusted by measuring total protein concentration in the lysates with Pierce 660 nm Protein Assay Reagent and Ionic Detergent Compatibility Reagent for Pierce 660 nm Protein Assay Reagent (Thermo Scientific). Samples were resolved by SDS-PAGE using a 12% polyacrylamide gel (Biorad) and electrotransferred onto an Immobilon PVDF membrane (Merck Millipore). Blots were blocked using casein blocker (Thermo Scientific) and hPGAM5 was labeled by rabbit anti-Myc antibody (Cell Signaling Technology, cat. #2278, dilution 1:1000) at 4 °C overnight. Blots were washed three times with TBS-T and incubated with IRDye 800 CW donkey anti-rabbit antibody (Invitrogen, cat. #SA5-10044, dilution 1:10,000) at room temperature for 2 h. Membranes were then again washed three times with TBS-T and one time with TBS. Fluorescence emission at […] of dried membranes was scanned on Odyssey CLx (LI-COR). Cleavage efficiency and inhibition were analyzed as described[23] using Image Studio Lite (LI-COR), Excel (Microsoft) and GraphPad Prism 9 (GraphPad Software, Inc.).

In assay [2] the target is T1, PARL. The assay can be described thus: CCCP-induced PGAM5-FLAG cleavage by endogenous PARL in HEK293T cells, immunoblot. It is filed as cell-based. More on the design: expressed in transfected cells; host or cells: Flp-In HEK293 T-REx PARL knockout cells. Particulars: 3 h, mean ± SEM of four experiments, read-out: Apparent IC50, CCCP-induced PGAM5 cleavage. Here is the method: Inducible stable Flp-In HEK293 T-REx cells expressing PINK1 were described previously.[33] HEK293 T-REx PINK1 and HEK293T cells were grown in DMEM (Gibco) supplemented with 10% (v/v) fetal bovine serum (ThermoFisher), 1% (v/v) GlutaMAX (Gibco), 1% (v/v) sodium pyruvate (Gibco), 125 μg/mL hygromycin (Invitrogen), and 10 μg/mL blasticidin (Gibco) or DMEM supplemented with 10% (v/v) fetal bovine serum, respectively, at 37 °C in 5% (v/v) CO2. For microscopy, cells were seeded on poly-L-lysine (Sigma)-coated slides. Transient plasmid transfections were performed using 25 kDa linear polyethylenimine (Polysciences). Plasmid (100 ng) encoding HA-Parkin-IRES-GFP, mito-mCherry or Parkin-mEGFP, or 500 ng plasmid encoding PGAM5-FLAG were used per 6-well. Total transfected DNA was 2 μg/well. For siRNA transfection, 2 × 10^5 cells were seeded per 6-well and on the next day transfected with 20 nM siRNA-oligonucleotide using lipofectamine RNAiMAX (ThermoFisher). Cells were analyzed 27 h post-transfection or five days post-siRNA-transfection. HEK293 T-REx PINK1 cells were induced with 0.3 μg/mL doxycycline for 24 h before further processing. […] For quantification, ImageJ was used (http://rsb.info.nih.gov/ij/). Immunoblots shown are representative of at least three independent experiments and were evaluated using Excel and GraphPad Prism 9 (GraphPad Software, Inc.).
A general note: In western blotting, separated proteins are transferred to a membrane and probed.

What is called IC50 is the concentration needed to halve the response being measured. For `CC(=O)N[C@@H](C)C(=O)N[C@H](C(=O)N[C@@H](Cc1ccccc1)C(=O)N[C@@H](CC(C)C)C(=O)N[C@@H](C)C(=O)C(=O)NCCCCc1ccccc1)C(C)C` [compound 5] (Ac-AVFL[X1]-{NH(4-phenylbutyl)}), the IC50 in assay [1] (Flp-In HEK293 T-REx PARL KO cells with inducible PARL-FLAG, PGAM5-Myc, mean ± SEM of four or three experiments, read-out: Apparent IC50, PGAM5 cleavage by overexpressed PARL) was 410 nM; in assay [2], 150 nM. Besides, the “Fold better than compound 6 in cells” value in assay [1] (ratio of apparent IC50 values, compound 5 vs compound 6) is “about 8 fold”.
